Values joined by “and” are separate entries in the source; they are usually repeats but may differ in a detail not shown here. Identical values can stand only once.
Assays:
OVX rats = assay: Osteoporosis therapeutic study in OVX rats (micro-CT); format: in vivo, rat; set-up: Tb.N: unit not given beside the values
Method: Female SD rats or C57BL/6 mice were cared until they grown up to 6 months old or 10 weeks old, respectively. Then we subjected them to either bilateral ovariectomy or sham operation after anesthesia with 10% chloral hydrate (0.3 mL/100 g). Then all the rats or mice were intramuscular injected of penicillin to prevent infection in the first week of surgery. For rat experiments, after 12 weeks of operation, 3 rats from sham-operated or ovariectomized groups were random selected to determine bone mass by micro-CT imaging biopsy to verify successful produced bone loss(data unshown). Then the OVX rats were individually administrated with S3-15, S3, and S3-05 orally with (10 mg/kg/day) for another 12 weeks. For mouse experiments, after 4 weeks of surgery, the OVX mice were treated with 10 mg/kg/day S3-15 for another 4 weeks.
The weight of rats or mice were recorded every week in the treatment period. After treatment, the rats were harvested, the serum, heart, liver, spleen, lung, kidney, thymus, and femurs were all collected and subjected to subsequent analysis. The right femurs of rats or mice were cleaned excess soft tissue, fixed in 10% formalin, and processed them for microcomputed tomography (micro-CT) analysis. Left mice femurs were collected and excarnate for biomechanical strength testing. Mice peripheral blood were as well as collected for flow cytometry analyzing.
The right femurs of rats or mice were further analyzed with micro-CT on Inveon PET/CT (Siemens, Germany). We used micro-CT to scan the femur from the femoral head to the femoral condyle, using 19 μm resolution, 80 kV 500uA, 360 projection, 3000-6000 image threshold, full rotation cone beam. Three-dimensional reconstruction and histomorphometric analyses of trabecular bone were conducted with the IAW (Inveon analysis workstation) analysis software. The trabecular extended 1 mm (rat) or 0.5 mm (mice) proximally to the end of the distal growth plate over 2 mm (rats) or 1 mm (mice) toward the diaphysis was selected as the region of interest (ROI) for the analysis. The resulting two-dimensional images of trabecular bone in relative cross sections were shown in grayscale. Trabecular bone parameters were measured including bone volume/tissue volume (BV/TV), bone surface area/bone volume (BS/BV), trabecular number (Tb.N), trabecular thickness (Tb.Th), trabecular separation(Tb.Sp) and trabecular pattern factor(Tb.P.F).

[1] = system: sRANKL induced osteoclast differentiation; assay: In vitro anti-osteoclastogenesis activity determination (TRAP staining); format: cell-based, mouse; set-up: key to inhibition of osteoclastogenesis, dose-response (fig. S2a): % inhibition = 100 − (treated−unstimulated)/(untreated−unstimulated)×100
Procedure, shortened: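 Mouse bone-marrow macrophages in 10 ng/mL M-CSF were stimulated with 100 ng/mL sRANKL plus compound at 9 concentrations, refreshed every 2 days, triplicate wells. After 5 days TRAP-stained osteoclasts were counted; inhibition normalised to untreated and unstimulated controls, IC50 by nonlinear regression.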

[2] = Pharmacokinetic studies in rat; format: in vivo; set-up: unit not given here
[3] = Pharmacokinetic studies in rat; format: in vivo; set-up: plasma concentration-time (fig. S2c): unit not given here
Method: 28-week-old and 280 g∼370 g weight male SD (Sprague Dawley) rats were used for pharmacokinetic (PK) studies. Rats were weighed and divided into groups of 3 rats per group. Compounds S3, S3-05 and S3-15 were dissolved in deionized water and made the concentration to 1 mg/mL. Then rats were oral gavage administrated at the doses of 10 mg/kg for each compound. Blood samples were collected in tubes with heparin sodium at 5 min, 10 min, 20 min, 30 min, 40 min, 60 min, 2 h, 3 h, 4 h, 5.5 h, 7 h, 9 h, 12 h, 16 h, 24 h, 32 h, 40 h, 48 h, time points, with three […] per time point for each compound. Blood samples were centrifuged 2100 × g for 10 min at 4 °C, then the plasma was transferred to a clean microfuge tube. Plasma samples were stored at −80 °C. Additionally, ten rats were used as a control and not treated with compound. Plasma from control mice was used to calibrate LC-MS and correct for matrix effects. Drug concentration in plasma was quantified by LC-MS-based methods. Pharmacokinetic parameters were estimated using Phoenix WinNonlin (version 6.3) (Certara USA, Princeton, New Jersey) from mean plasma concentration-time profiles.

[4] = OVX + compound, individual animals
[5] = Sprague-Dawley, rat, male SD rats, oral 10 mg/kg, plasma

CCOC(=O)c1sc(NC(=O)/C(=N/Nc2ccc(O)cc2C(=O)O)C(C)=O)nc1C [S3-05]
BV/TV (OVX rats; [4]): 0.3016 and 0.3941 and 0.3094 and 0.3401 and 0.3769 and 0.3486 and 0.3669 and 0.2495
Tb.N (OVX rats; [4]): 0.07827 and 0.1011 and 0.07596 and 0.08201 and 0.08333 and 0.08879 and 0.08221 and 0.07582
Tb.Sp (OVX rats; [4]): 0.1812 and 0.1554 and 0.1695 and 0.1592 and 0.1377 and 0.1659 and 0.1419 and 0.2281
Tb.Th (OVX rats; [4]): 3.854 and 3.899 and 4.073 and 4.146 and 4.523 and 3.9259 and 4.463 and 3.291
BV/TV of OVX rats (OVX rats; oral 10 mg/kg/day, 12 weeks, in words): increased
IC50 ([1]; Mus musculus, Osteoclast, 120 h, BMMs, M-CSF + 100 ng/mL sRANKL, 5 days, TRAP staining, read-out: OC IC50 (anti-osteoclastogenesis activity)): 410 nM
inhibition at 0.00774313 µM ([1]; Mus musculus, Osteoclast, conc. 0.00774313 μM, three replicate columns, read-out: inhibition of osteoclastogenesis, dose-response (fig. S2a)): 10.9%
inhibition at 0.0255523 µM ([1]; Mus musculus, Osteoclast, conc. 0.0255523 μM, three replicate columns, read-out: inhibition of osteoclastogenesis, dose-response (fig. S2a)): 21.5%
inhibition at 0.0843226 µM ([1]; Mus musculus, Osteoclast, conc. 0.0843226 μM, three replicate columns, read-out: inhibition of osteoclastogenesis, dose-response (fig. S2a)): 24.5%
inhibition at 0.278265 µM ([1]; Mus musculus, Osteoclast, conc. 0.278265 μM, three replicate columns, read-out: inhibition of osteoclastogenesis, dose-response (fig. S2a)): 45.8%
inhibition at 0.918274 µM ([1]; Mus musculus, Osteoclast, conc. 0.918274 μM, three replicate columns, read-out: inhibition of osteoclastogenesis, dose-response (fig. S2a)): 58.5%
inhibition at 3.0303 µM ([1]; Mus musculus, Osteoclast, conc. 3.0303 μM, three replicate columns, read-out: inhibition of osteoclastogenesis, dose-response (fig. S2a)): 78.9%
inhibition at 10 µM ([1]; Mus musculus, Osteoclast, conc. 10 μM, three replicate columns, read-out: inhibition of osteoclastogenesis, dose-response (fig. S2a)): 86.2%
inhibition at 33 µM ([1]; Mus musculus, Osteoclast, conc. 33 μM, three replicate columns, read-out: inhibition of osteoclastogenesis, dose-response (fig. S2a)): 98.5%
inhibition of osteoclastogenesis, dose-response (fig. S2a) ([1]; conc. 0.0023464 μM, three replicate columns): 5.216 and -0.5015 and 0.1003
inhibition of osteoclastogenesis, dose-response (fig. S2a) ([1]; conc. 0.00774313 μM, three replicate columns): 7.021 and 8.826
inhibition of osteoclastogenesis, dose-response (fig. S2a) ([1]; conc. 0.0255523 μM, three replicate columns): 18.7563 and 13.6409
inhibition of osteoclastogenesis, dose-response (fig. S2a) ([1]; conc. 0.0843226 μM, three replicate columns): 23.8716
inhibition of osteoclastogenesis, dose-response (fig. S2a) ([1]; conc. 0.278265 μM, three replicate columns): 51.2538 and 38.6159
inhibition of osteoclastogenesis, dose-response (fig. S2a) ([1]; conc. 0.918274 μM, three replicate columns): 65.3962 and 65.0953
inhibition of osteoclastogenesis, dose-response (fig. S2a) ([1]; conc. 3.0303 μM, three replicate columns): 74.4233 and 77.4323
inhibition of osteoclastogenesis, dose-response (fig. S2a) ([1]; conc. 10 μM, three replicate columns): 87.0612 and 88.2648
inhibition of osteoclastogenesis, dose-response (fig. S2a) ([1]; conc. 33 μM, three replicate columns): 99.3982 and 99.6991
plasma concentration-time (fig. S2c) ([2]; time 28 h): 0.0028 and 0.0125 and 0.0083
plasma concentration-time (fig. S2c) ([2]; time 36 h): 0.0011 and 0.0231 and 0.0066
Cmax [3, 5]: 60 ± 10 ng/mL
half-life [3, 5]: 10.6 ± 2.31 h
AUC ([3]; male SD rats, oral 10 mg/kg, plasma): 0.38± 0.23 hr*ug/m
plasma concentration-time (fig. S2c) ([3]; rat, time 0.083 h): 0.0241 and 0.0344 and 0.0141
plasma concentration-time (fig. S2c) ([3]; rat, time 0.167 h): 0.091 and 0.0772 and 0.0497
plasma concentration-time (fig. S2c) ([3]; rat, time 0.333 h): 0.07 and 0.0598 and 0.0834
plasma concentration-time (fig. S2c) ([3]; rat, time 0.5 h): 0.063 and 0.055 and 0.0901
plasma concentration-time (fig. S2c) ([3]; rat, time 0.667 h): 0.057 and 0.0597 and 0.0836
plasma concentration-time (fig. S2c) ([3]; rat, time 1 h): 0.0458 and 0.0351 and 0.0779
plasma concentration-time (fig. S2c) ([3]; rat, time 2 h): 0.0356 and 0.0153 and 0.0386
plasma concentration-time (fig. S2c) ([3]; rat, time 3 h): 0.0376 and 0.0287 and 0.0316
plasma concentration-time (fig. S2c) ([3]; rat, time 4 h): 0.0238 and 0.027 and 0.0298
plasma concentration-time (fig. S2c) ([3]; rat, time 5.5 h): 0.0163 and 0.0195 and 0.0418
plasma concentration-time (fig. S2c) ([3]; rat, time 7 h): 0.0115 and 0.0105 and 0.0613
plasma concentration-time (fig. S2c) ([3]; rat, time 9 h): 0.0058 and 0.0107 and 0.0452
plasma concentration-time (fig. S2c) ([3]; rat, time 12 h): 0.0058 and 0.0222 and 0.0307
plasma concentration-time (fig. S2c) ([3]; rat, time 16 h): 0.0077 and 0 and 0.0286
plasma concentration-time (fig. S2c) ([3]; rat, time 24 h): 0.0024 and 0.0688 and 0.0143
plasma concentration-time (fig. S2c) ([3]; rat, time 48 h): 0.0008 and 0.0021 and 0.0027

— PMC9468151, “Identification of a binding site on soluble RANKL that can be targeted to inhibit soluble RANK-RANKL interactions and treat osteoporosis” (Nature Communications, 2022)
